Reference: patent US20230265151A1, “GIP/GLP1 CO-AGONIST COMPOUNDS” (priority 2020, published 2023)
Like-named read-outs stand apart in the source and are kept apart here.

Legend:
[1] = target: T1, human GIP receptor (hGIPR) (Homo sapiens, UniProt P48546); test: [125I]-GIP binding, SPA with membranes of CHO cells expressing hGIPR; details: human GIPR; geometric mean (SEM, n); read-out: Binding Affinity Ki, nM (SEM, n) hGIPR
T1 construct: expressed in transfected cells; crude membranes
T1 sequence (P48546 22-466): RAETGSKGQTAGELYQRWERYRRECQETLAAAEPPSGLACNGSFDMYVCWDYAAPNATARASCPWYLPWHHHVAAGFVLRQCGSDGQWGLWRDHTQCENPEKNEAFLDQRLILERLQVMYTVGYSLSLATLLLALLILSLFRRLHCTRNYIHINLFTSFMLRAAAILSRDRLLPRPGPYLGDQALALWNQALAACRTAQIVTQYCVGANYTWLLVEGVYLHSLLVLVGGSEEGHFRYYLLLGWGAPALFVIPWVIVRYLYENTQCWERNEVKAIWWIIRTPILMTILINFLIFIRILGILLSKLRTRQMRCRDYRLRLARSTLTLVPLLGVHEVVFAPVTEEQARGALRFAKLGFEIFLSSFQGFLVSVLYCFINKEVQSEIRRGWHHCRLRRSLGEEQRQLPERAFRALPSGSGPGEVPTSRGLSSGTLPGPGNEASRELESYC

[2] = target: T2, hGCGR (Homo sapiens, UniProt P47871); test: Functional cAMP formation (HTRF) in HEK-293 clonal cells expressing hGCGR, 0.1% bovine casein, without or with 1.0% human serum albumin; assay type: cell-based; details: 37° C., read-out: hGCGR EC50, nM (SEM, n)
T2 construct: expressed in transfected cells
Method in brief: (§1)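 Readings of the HTRF 665/620 nm ratio, which falls as cAMP rises, were converted to nM cAMP using a standard curve after 30 min peptide exposure at 37° C.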

[3] = target: T3, human GLP-1 receptor (hGLP-1R) (Homo sapiens, UniProt P43220); test: [125I]-GLP-1 binding, SPA with membranes of HEK293 cells expressing hGLP-1R; details: human GLP-1R; geometric mean (SEM, n); read-out: Binding Affinity Ki, nM (SEM, n) hGLP-1R
T3 construct: expressed in transfected cells; crude membranes

[4] = target: hGLP-1R (Homo sapiens, UniProt P43220); test: Functional cAMP formation (HTRF) in HEK-293 clonal cells expressing hGLP-1R, 0.1% bovine casein, without or with 1.0% human serum albumin; assay type: cell-based; design: expressed in transfected cells; details: 37° C.; for EC50: read-out: hGLP-1R EC50, nM (SEM, n); for Emax: percent of maximal response to GLP-1(7-36)NH2, read-out: hGLP-1R Emax, % ± SEM
Method in brief: as §1

[5] = target: T4, hGIPR (Homo sapiens, UniProt P48546); test: Functional cAMP formation (HTRF) in HEK-293 clonal cells expressing hGIPR, 0.1% bovine casein, without or with 1.0% human serum albumin; assay type: cell-based; details: 37° C.; for Emax: percent of maximal response to GIP(1-42)NH2, read-out: hGIPR Emax, % ± SEM; for EC50: cAMP, 0.1% bovine casein (no human serum albumin), geometric mean, read-out: hGIPR EC50, nM (SEM, n)
T4 construct: expressed in transfected cells
T4 sequence (P48546 22-466): T1 sequence (P48546 22-466)
Method in brief: as §1

[6] = 0.1% bovine casein and 1.0% human serum albumin, geometric mean
[7] = cAMP, 0.1% bovine casein (no human serum albumin), geometric mean
[8] = HEK293, 0.1% bovine casein and 1.0% human serum albumin
[9] = HEK293, cAMP, 0.1% bovine casein, arithmetic mean
[10] = cAMP, 0.1% bovine casein and 1.0% human serum albumin, geometric mean (SEM, n)
[11] = HEK293, cAMP, 0.1% bovine casein and 1.0% human serum albumin

T2 sequence (P47871 26-477): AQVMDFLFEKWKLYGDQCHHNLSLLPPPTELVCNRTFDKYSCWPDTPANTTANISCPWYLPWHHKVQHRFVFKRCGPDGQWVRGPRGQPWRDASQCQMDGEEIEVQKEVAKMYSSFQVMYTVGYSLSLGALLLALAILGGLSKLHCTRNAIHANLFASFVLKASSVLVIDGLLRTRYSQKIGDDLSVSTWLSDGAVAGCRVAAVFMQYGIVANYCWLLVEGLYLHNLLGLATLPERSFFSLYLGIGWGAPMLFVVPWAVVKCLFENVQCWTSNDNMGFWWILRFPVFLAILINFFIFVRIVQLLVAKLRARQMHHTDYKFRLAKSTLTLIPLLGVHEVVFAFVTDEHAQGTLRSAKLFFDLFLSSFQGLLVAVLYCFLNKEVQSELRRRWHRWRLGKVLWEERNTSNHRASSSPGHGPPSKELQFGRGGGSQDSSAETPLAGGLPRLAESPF
Chain of hGLP-1R (P43220 24-463): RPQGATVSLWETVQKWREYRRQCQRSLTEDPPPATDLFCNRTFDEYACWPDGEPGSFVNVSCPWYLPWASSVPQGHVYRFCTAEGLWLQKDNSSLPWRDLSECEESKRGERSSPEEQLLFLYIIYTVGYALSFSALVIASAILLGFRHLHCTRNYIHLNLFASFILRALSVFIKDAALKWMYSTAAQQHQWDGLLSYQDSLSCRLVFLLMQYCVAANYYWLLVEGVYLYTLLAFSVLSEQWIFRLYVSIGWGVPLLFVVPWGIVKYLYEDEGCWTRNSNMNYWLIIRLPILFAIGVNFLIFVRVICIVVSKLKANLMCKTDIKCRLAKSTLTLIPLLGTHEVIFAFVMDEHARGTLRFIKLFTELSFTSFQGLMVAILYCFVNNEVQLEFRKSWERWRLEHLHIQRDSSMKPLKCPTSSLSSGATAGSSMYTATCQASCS
T3 sequence (P43220 24-463): as above

## CCCCCCCCCCCC(=O)N[C@@H](CCC(=O)NCCOCCOCC(=O)NCCOCCOCC(=O)NCCCC[C@H](NC(=O)[C@H](CCCN)NC(=O)[C@H](CC(=O)O)NC(=O)[C@H](CC(C)C)NC(=O)[C@](C)(CC(C)C)NC(=O)[C@@H](NC(=O)C(C)(C)NC(=O)[C@H](CCCCNC(=O)COCCOCCNC(=O)COCCOCCNC(=O)CC[C@H](NC(=O)CCCCCCCCCCC)C(=O)O)NC(=O)[C@H](CC(=O)O)NC(=O)[C@H](CO)NC(=O)[C@@H](NC(=O)[C@](C)(Cc1ccccc1F)NC(=O)[C@@H](NC(=O)CNC(=O)[C@H](CCC(=O)O)NC(=O)C(C)(C)NC(=O)[C@@H](N)Cc1ccc(O)cc1)[C@@H](C)O)[C@@H](C)O)[C@@H](C)CC)C(=O)N[C@@H](C)C(=O)N[C@@H](CCC(N)=O)C(=O)NC(C)(C)C(=O)N[C@@H](CCC(=O)O)C(=O)N[C@@H](Cc1ccccc1)C(=O)N[C@H](C(=O)N[C@H](CCC(=O)O)C(=O)N[C@@](C)(Cc1ccc(O)cc1)C(=O)N[C@@H](CC(C)C)C(=O)N[C@H](C(=O)N[C@@H](CCC(=O)O)C(=O)NCC(=O)NCC(=O)N1CCC[C@H]1C(=O)N[C@@H](CO)C(=O)N[C@@H](CO)C(=O)NCC(=O)N[C@@H](C)C(=O)N1CCC[C@H]1C(=O)N1CCC[C@H]1C(=O)N1CCC[C@H]1C(=O)N[C@@H](CO)C(N)=O)[C@@H](C)CC)[C@@H](C)CC)C(=O)O [Example 292]
[1]
  Ki: 0.0161 nM
[2]; [6]
  EC50: > 9950 nM
[2]; [7]
  EC50: > 9950 nM
[3]
  Ki: 0.289 nM
[4]; [6]
  EC50: 4.35 nM
[4]; [7]
  EC50: 0.0758 nM
[5]; [8]
  Emax: 88.4%
[5]
  EC50: 0.0062 nM

## CCCCCCCCCCCC(=O)N[C@@H](CCC(=O)NCCOCCOCC(=O)NCCOCCOCC(=O)NCCCC[C@H](NC(=O)[C@H](CCCN)NC(=O)[C@H](CC(=O)O)NC(=O)[C@H](CC(C)C)NC(=O)[C@](C)(CC(C)C)NC(=O)[C@@H](NC(=O)C(C)(C)NC(=O)[C@H](Cc1ccncc1)NC(=O)[C@H](CC(=O)O)NC(=O)[C@H](CO)NC(=O)[C@@H](NC(=O)[C@](C)(Cc1ccccc1F)NC(=O)[C@@H](NC(=O)CNC(=O)[C@H](CCC(=O)O)NC(=O)C(C)(C)NC(=O)[C@@H](N)Cc1ccc(O)cc1)[C@@H](C)O)[C@@H](C)O)[C@@H](C)CC)C(=O)N[C@@H](C)C(=O)N[C@@H](CCC(N)=O)C(=O)NC(C)(C)C(=O)N[C@@H](CCCCNC(=O)COCCOCCNC(=O)COCCOCCNC(=O)CC[C@H](NC(=O)CCCCCCCCCCC)C(=O)O)C(=O)N[C@@H](Cc1ccccc1)C(=O)N[C@H](C(=O)N[C@H](CCC(=O)O)C(=O)N[C@@](C)(Cc1ccc(O)cc1)C(=O)N[C@@H](CC(C)C)C(=O)N[C@H](C(=O)N[C@@H](CCC(=O)O)C(=O)NCC(=O)NCC(=O)N1CCC[C@H]1C(=O)N[C@@H](CO)C(=O)N[C@@H](CO)C(=O)NCC(=O)N[C@@H](C)C(=O)N1CCC[C@H]1C(=O)N1CCC[C@H]1C(=O)N1CCC[C@H]1C(=O)N[C@@H](CO)C(N)=O)[C@@H](C)CC)[C@@H](C)CC)C(=O)O [Example 322]
[1]
  Ki: 0.0162 nM
[2]; [6]
  EC50: > 9950 nM
[2]; [7]
  EC50: > 9950 nM
[3]
  Ki: 0.234 nM
[4]; [8]
  Emax: 94.5%
[4]; [9]
  Emax: 100%
[4]; [7]
  EC50: 0.144 nM
[5]; [8]
  Emax: 89.7%
[5]
  EC50: 0.00937 nM

## CC[C@H](C)[C@H](NC(=O)[C@H](CC(C)C)NC(=O)[C@](C)(Cc1ccc(O)cc1)NC(=O)[C@H](CCCCNC(=O)COCCOCCNC(=O)COCCOCCNC(=O)CC[C@H](NC(=O)CC[C@H](NC(=O)CCCCCCCCCCCCC(=O)O)C(=O)O)C(=O)O)NC(=O)[C@@H](NC(=O)[C@H](Cc1ccccc1)NC(=O)[C@H](CCCN)NC(=O)C(C)(C)NC(=O)[C@H](CCC(N)=O)NC(=O)[C@H](C)NC(=O)[C@H](CCC(N)=O)NC(=O)[C@H](CCCN)NC(=O)[C@H](CC(=O)O)NC(=O)[C@H](CC(C)C)NC(=O)[C@](C)(CC(C)C)NC(=O)[C@@H](NC(=O)C(C)(C)NC(=O)[C@H](Cc1ccncc1)NC(=O)[C@H](CC(=O)O)NC(=O)[C@H](CO)NC(=O)[C@@H](NC(=O)[C@](C)(Cc1ccccc1F)NC(=O)[C@@H](NC(=O)CNC(=O)[C@H](CCC(=O)O)NC(=O)C(C)(C)NC(=O)[C@@H](N)Cc1ccc(O)cc1)[C@@H](C)O)[C@@H](C)O)[C@@H](C)CC)[C@@H](C)CC)C(=O)N[C@@H](CCCCNC(=O)COCCOCCNC(=O)COCCOCCNC(=O)CC[C@H](NC(=O)CC[C@H](NC(=O)CCCCCCCCCCCCC(=O)O)C(=O)O)C(=O)O)C(=O)NCC(=O)NCC(=O)N1CCC[C@H]1C(=O)N[C@@H](CO)C(=O)N[C@@H](CO)C(=O)NCC(=O)N[C@@H](C)C(=O)N1CCC[C@H]1C(=O)N1CCC[C@H]1C(=O)N1CCC[C@H]1C(=O)N[C@@H](CO)C(N)=O [Example 474]
[1]
  Ki: 0.0427 nM
[2]; [7]
  EC50: > 9950 nM
[2]; [10]
  EC50: > 9950 nM
[3]
  Ki: 0.343 nM
[4]; [9]
  Emax: 113%
[4]; [7]
  EC50: 0.123 nM
[4]; [10]
  EC50: 1.1 nM
[5]; [11]
  Emax: 85.6%
[5]
  EC50: 0.0106 nM

## CCCCCCCCCCCC(=O)N[C@@H](CCC(=O)NCCOCCOCC(=O)NCCOCCOCC(=O)NCCOCCOCC(=O)NCCCC[C@H](NC(=O)[C@H](CO)NC(=O)[C@@H]1CCCN1C(=O)[C@@H]1CCCN1C(=O)[C@@H]1CCCN1C(=O)[C@H](C)NC(=O)CNC(=O)[C@H](CO)NC(=O)[C@H](CO)NC(=O)[C@@H]1CCCN1C(=O)CNC(=O)CNC(=O)[C@H](CCC(=O)O)NC(=O)[C@@H](NC(=O)[C@H](CC(C)C)NC(=O)[C@](C)(Cc1ccc(O)cc1)NC(=O)[C@@H](CCC(=O)O)NC(=O)[C@@H](NC(=O)[C@H](Cc1ccccc1)NC(=O)[C@H](CCC(=O)O)NC(=O)C(C)(C)NC(=O)[C@H](CCC(N)=O)NC(=O)[C@H](C)NC(=O)[C@H](CCCCNC(=O)COCCOCCNC(=O)COCCOCCNC(=O)COCCOCCNC(=O)CC[C@H](NC(=O)CCCCCCCCCCC)C(=O)O)NC(=O)[C@H](CCCN)NC(=O)[C@H](CC(=O)O)NC(=O)[C@H](CC(C)C)NC(=O)[C@](C)(CC(C)C)NC(=O)[C@@H](NC(=O)C(C)(C)NC(=O)[C@H](Cc1ccncc1)NC(=O)[C@H](CC(=O)O)NC(=O)[C@H](CO)NC(=O)[C@@H](NC(=O)[C@](C)(Cc1ccccc1F)NC(=O)[C@@H](NC(=O)CNC(=O)[C@H](CCC(=O)O)NC(=O)C(C)(C)NC(=O)[C@@H](N)Cc1ccc(O)cc1)[C@@H](C)O)[C@@H](C)O)[C@@H](C)CC)[C@@H](C)CC)[C@@H](C)CC)C(N)=O)C(=O)O [Example 424]
[1]
  Ki: 0.0206 nM
[2]; [7]
  EC50: > 9950 nM
[2]; [10]
  EC50: > 9950 nM
[3]
  Ki: 0.219 nM
[4]; [11]
  Emax: 98.1%
[4]; [7]
  EC50: 0.0427 nM
[4]; [10]
  EC50: 3.07 nM
[5]; [11]
  Emax: 89.5%
[5]
  EC50: 0.00502 nM
